These results are taken from article PMC3796545, “Protein-Protein Interactions as a Strategy towards Protein-Specific Drug Design: The Example of Ataxin-1” (PLoS ONE, 2013).

A word on the Kd: it is a measure of binding affinity in units of concentration.

Assay [1] addresses T1, ATX1 AXH (residues A567–K689 of human ATX1) (Homo sapiens, UniProt P54253).
T1 construct: Recombinant ATX1 AXH (residues A567–K689 of human ATX1); His6-GST (N, cleaved yes); made in house; host or cells: E. coli BL21(DE3)pLysS
T1 sequence (P54253 566-688 limits assumed): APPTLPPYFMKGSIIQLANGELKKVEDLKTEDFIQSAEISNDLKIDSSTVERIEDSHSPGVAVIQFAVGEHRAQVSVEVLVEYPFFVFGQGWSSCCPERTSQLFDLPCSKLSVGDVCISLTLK
The assay is described as follows: ITC binding of CIC peptides to ATX1 AXH. The settings on record: 25°C, 50 mM Tris-HCl pH 7, 50 mM NaCl, 2 mM TCEP, averages of three measurements, read-out: dissociation constant (Kd). Here is the method: Binding affinities of AXH with CIC ligands were measured at 25°C by a MicroCal Omega VP-ITC (MicroCal Inc., Northampton, USA). Both protein and peptides buffers were 50 mM Tris-HCl pH 7, 50 mM NaCl, 2 mM TCEP. Solutions of 0.041 mM AXH in the cell were titrated by injections of a total of 283 µl of 0.410 mM peptide in the syringe in 21 aliquots. Data were processed with the software MicroCal Origin version 5.0 provided by the manufacturer. All dissociation constants were averages of three measurements.

Assay [2] addresses T2, ATX1 AXH (residues A567-K689 of human ATX1) (human).
T2 chain: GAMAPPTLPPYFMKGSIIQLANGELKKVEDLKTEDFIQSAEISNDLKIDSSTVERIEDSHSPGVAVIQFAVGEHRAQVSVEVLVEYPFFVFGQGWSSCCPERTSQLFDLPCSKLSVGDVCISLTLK
The assay is described as follows: ITC. (In general: In ITC the heat of successive injections is recorded.)

[3] abbreviates: 0.041 mM AXH in cell, 0.410 mM peptide in syringe.

Where two headings read alike, the source gives them in different places. Peptide text beside a SMILES is read from it.

With `CC(C)C[C@H](NC(=O)[C@H](Cc1ccccc1)NC(=O)[C@@H]1CCCN1C(=O)[C@@H](NC(=O)[C@H](CC(C)C)NC(=O)[C@H](CO)NC(=O)[C@H](Cc1c[nH]cn1)NC(=O)[C@H](Cc1c[nH]c2ccccc12)NC(=O)[C@@H]1CCCN1C(=O)[C@H](Cc1ccccc1)NC(=O)[C@@H](N)C(C)C)C(C)C)C(=O)NCC(=O)N1CCC[C@H]1C(=O)N[C@@H](CO)C(=O)N[C@@H](CCC(N)=O)C(=O)O` [A45] (H-VFPWHSLVPFLGPSQ-OH), the dissociation constant (Kd) in assay [1] (setting [3]) was determined as 20 nM.

For the molecule `CC(C)C[C@H](NC(=O)[C@H](Cc1ccccc1)NC(=O)[C@@H]1CCCN1C(=O)[C@@H](NC(=O)[C@H](CC(C)C)NC(=O)[C@H](CO)NC(=O)[C@H](Cc1c[nH]cn1)NC(=O)[C@H](Cc1c[nH]c2ccccc12)NC(=O)[C@@H]1CCCN1)C(C)C)C(=O)N[C@@H](C)C(=O)N1CCC[C@H]1C(=O)N[C@@H](CO)C(=O)N[C@@H](CCC(N)=O)C(=O)O` [CICp] (H-PWHSLVPFLAPSQ-OH), the dissociation constant (Kd) in assay [1] (setting [3]) is 8000 nM.

As for `CC(C)C[C@H](NC(=O)[C@H](Cc1ccccc1)NC(=O)[C@@H]1CCCN1C(=O)[C@@H](NC(=O)[C@H](CC(C)C)NC(=O)[C@H](CO)NC(=O)[C@H](Cc1c[nH]cn1)NC(=O)[C@H](Cc1c[nH]c2ccccc12)NC(=O)[C@@H]1CCCN1C(=O)[C@H](C)NC(=O)[C@@H](N)C(C)C)C(C)C)C(=O)N[C@@H](C)C(=O)N1CCC[C@H]1C(=O)N[C@@H](CO)C(=O)N[C@@H](CCC(N)=O)C(=O)O` [F35] (H-VAPWHSLVPFLAPSQ-OH), the Kd in assay [1] (setting [3]) was determined as 30 nM.

On to `CC(C)C[C@H](NC(=O)[C@H](C)NC(=O)[C@@H]1CCCN1C(=O)[C@@H](NC(=O)[C@H](CC(C)C)NC(=O)[C@H](CO)NC(=O)[C@H](Cc1c[nH]cn1)NC(=O)[C@H](Cc1c[nH]c2ccccc12)NC(=O)[C@@H]1CCCN1C(=O)[C@H](Cc1ccccc1)NC(=O)[C@@H](N)C(C)C)C(C)C)C(=O)N[C@@H](C)C(=O)N1CCC[C@H]1C(=O)N[C@@H](CO)C(=O)N[C@@H](CCC(N)=O)C(=O)O` [F43] (H-VFPWHSLVPALAPSQ-OH), for which the Kd in assay [1] (setting [3]) was found to be 60 nM.

Turning to `CC(C)C[C@H](NC(=O)[C@H](Cc1ccccc1)NC(=O)[C@@H]1CCCN1C(=O)[C@@H](NC(=O)[C@H](CC(C)C)NC(=O)[C@H](CO)NC(=O)[C@H](C)NC(=O)[C@H](Cc1c[nH]c2ccccc12)NC(=O)[C@@H]1CCCN1C(=O)[C@H](Cc1ccccc1)NC(=O)[C@@H](N)C(C)C)C(C)C)C(=O)N[C@@H](C)C(=O)N1CCC[C@H]1C(=O)N[C@@H](CO)C(=O)N[C@@H](CCC(N)=O)C(=O)O` [H38] (H-VFPWASLVPFLAPSQ-OH), in assay [1] (setting [3]), the Kd amounted to 50 nM.

As for `CC(C)C[C@H](NC(=O)[C@H](Cc1ccccc1)NC(=O)[C@@H]1CCCN1C(=O)[C@@H](NC(=O)[C@H](C)NC(=O)[C@H](CO)NC(=O)[C@H](Cc1c[nH]cn1)NC(=O)[C@H](Cc1c[nH]c2ccccc12)NC(=O)[C@@H]1CCCN1C(=O)[C@H](Cc1ccccc1)NC(=O)[C@@H](N)C(C)C)C(C)C)C(=O)N[C@@H](C)C(=O)N1CCC[C@H]1C(=O)N[C@@H](CO)C(=O)N[C@@H](CCC(N)=O)C(=O)O` [L40] (H-VFPWHSAVPFLAPSQ-OH), the Kd in assay [1] (setting [3]) came out at 500 nM.

With `CC(C)C[C@H](NC(=O)[C@H](CO)NC(=O)[C@H](Cc1c[nH]cn1)NC(=O)[C@H](Cc1c[nH]c2ccccc12)NC(=O)[C@@H]1CCCN1C(=O)[C@H](Cc1ccccc1)NC(=O)[C@@H](N)C(C)C)C(=O)N[C@H](C(=O)N1CCC[C@H]1C(=O)N[C@@H](Cc1ccccc1)C(=O)N[C@@H](C)C(=O)N[C@@H](C)C(=O)N1CCC[C@H]1C(=O)N[C@@H](CO)C(=O)N[C@@H](CCC(N)=O)C(=O)O)C(C)C` [L44] (H-VFPWHSLVPFAAPSQ-OH), in assay [1] (setting [3]), the Kd was 50 nM.

As for `CC(C)C[C@H](NC(=O)[C@H](Cc1ccccc1)NC(=O)[C@@H]1CCCN1C(=O)[C@@H](NC(=O)[C@H](CC(C)C)NC(=O)[C@H](CO)NC(=O)[C@H](Cc1c[nH]cn1)NC(=O)[C@H](Cc1c[nH]c2ccccc12)NC(=O)[C@@H]1CCCN1C(=O)[C@H](Cc1ccccc1)NC(=O)[C@@H](N)C(C)C)C(C)C)C(=O)N[C@@H](C)C(=O)N1CCC[C@H]1C(=O)N[C@@H](CO)C(=O)N[C@@H](CCC(N)=O)C(=O)O` [L-CICp] (H-VFPWHSLVPFLAPSQ-OH), the results for the equilibrium dissociation constant (Kd) in assay [1] (setting [3]) and in assay [1] were 30 nM and roughly 33 nM, respectively.

For the molecule `CC(C)C[C@H](NC(=O)[C@H](Cc1ccccc1)NC(=O)[C@@H]1CCCN1C(=O)[C@@H](NC(=O)[C@H](CC(C)C)NC(=O)[C@H](CO)NC(=O)[C@H](Cc1c[nH]cn1)NC(=O)[C@H](Cc1c[nH]c2ccccc12)NC(=O)[C@H](C)NC(=O)[C@H](Cc1ccccc1)NC(=O)[C@@H](N)C(C)C)C(C)C)C(=O)N[C@@H](C)C(=O)N1CCC[C@H]1C(=O)N[C@@H](CO)C(=O)N[C@@H](CCC(N)=O)C(=O)O` [P36] (H-VFAWHSLVPFLAPSQ-OH), the Kd in assay [1] (setting [3]) came out at 40 nM.

For the molecule `CC(C)C[C@H](NC(=O)[C@H](Cc1ccccc1)NC(=O)[C@H](C)NC(=O)[C@@H](NC(=O)[C@H](CC(C)C)NC(=O)[C@H](CO)NC(=O)[C@H](Cc1c[nH]cn1)NC(=O)[C@H](Cc1c[nH]c2ccccc12)NC(=O)[C@@H]1CCCN1C(=O)[C@H](Cc1ccccc1)NC(=O)[C@@H](N)C(C)C)C(C)C)C(=O)N[C@@H](C)C(=O)N1CCC[C@H]1C(=O)N[C@@H](CO)C(=O)N[C@@H](CCC(N)=O)C(=O)O` [P42] (H-VFPWHSLVAFLAPSQ-OH), the dissociation constant Kd in assay [1] (setting [3]) was found to be 40 nM.

Turning to `CC(C)C[C@H](NC(=O)[C@H](Cc1ccccc1)NC(=O)[C@@H]1CCCN1C(=O)[C@@H](NC(=O)[C@H](CC(C)C)NC(=O)[C@H](CO)NC(=O)[C@H](Cc1c[nH]cn1)NC(=O)[C@H](Cc1c[nH]c2ccccc12)NC(=O)[C@@H]1CCCN1C(=O)[C@H](Cc1ccccc1)NC(=O)[C@@H](N)C(C)C)C(C)C)C(=O)N[C@@H](C)C(=O)N[C@@H](C)C(=O)N[C@@H](CO)C(=O)N[C@@H](CCC(N)=O)C(=O)O` [P46] (H-VFPWHSLVPFLAASQ-OH), the Kd in assay [1] (setting [3]) is 20 nM.

As to `CC(C)C[C@H](NC(=O)[C@H](C)NC(=O)[C@H](Cc1c[nH]cn1)NC(=O)[C@H](Cc1c[nH]c2ccccc12)NC(=O)[C@@H]1CCCN1C(=O)[C@H](Cc1ccccc1)NC(=O)[C@@H](N)C(C)C)C(=O)N[C@H](C(=O)N1CCC[C@H]1C(=O)N[C@@H](Cc1ccccc1)C(=O)N[C@@H](CC(C)C)C(=O)N[C@@H](C)C(=O)N1CCC[C@H]1C(=O)N[C@@H](CO)C(=O)N[C@@H](CCC(N)=O)C(=O)O)C(C)C` [S39] (H-VFPWHALVPFLAPSQ-OH), the Kd in assay [1] (setting [3]) amounted to 10 nM.

Take `CC(C)C[C@H](NC(=O)[C@H](Cc1ccccc1)NC(=O)[C@@H]1CCCN1C(=O)[C@@H](NC(=O)[C@H](CC(C)C)NC(=O)[C@H](CO)NC(=O)[C@H](Cc1c[nH]cn1)NC(=O)[C@H](Cc1c[nH]c2ccccc12)NC(=O)[C@@H]1CCCN1C(=O)[C@H](Cc1ccccc1)NC(=O)[C@H](C)N)C(C)C)C(=O)N[C@@H](C)C(=O)N1CCC[C@H]1C(=O)N[C@@H](CO)C(=O)N[C@@H](CCC(N)=O)C(=O)O` [V34] (H-AFPWHSLVPFLAPSQ-OH): the dissociation constant (Kd) in assay [1] (setting [3]) came out at 20 nM.

`CC(C)C[C@H](NC(=O)[C@H](Cc1ccccc1)NC(=O)[C@@H]1CCCN1C(=O)[C@H](C)NC(=O)[C@H](CC(C)C)NC(=O)[C@H](CO)NC(=O)[C@H](Cc1c[nH]cn1)NC(=O)[C@H](Cc1c[nH]c2ccccc12)NC(=O)[C@@H]1CCCN1C(=O)[C@H](Cc1ccccc1)NC(=O)[C@@H](N)C(C)C)C(=O)N[C@@H](C)C(=O)N1CCC[C@H]1C(=O)N[C@@H](CO)C(=O)N[C@@H](CCC(N)=O)C(=O)O` [V41] (H-VFPWHSLAPFLAPSQ-OH): the Kd in assay [1] (setting [3]) was found to be 70 nM.

In the case of `CC(C)C[C@H](NC(=O)[C@H](Cc1ccccc1)NC(=O)[C@@H]1CCCN1C(=O)[C@@H](NC(=O)[C@H](CC(C)C)NC(=O)[C@H](CO)NC(=O)[C@H](Cc1c[nH]cn1)NC(=O)[C@H](C)NC(=O)[C@@H]1CCCN1C(=O)[C@H](Cc1ccccc1)NC(=O)[C@@H](N)C(C)C)C(C)C)C(=O)N[C@@H](C)C(=O)N1CCC[C@H]1C(=O)N[C@@H](CO)C(=O)N[C@@H](CCC(N)=O)C(=O)O` [W37] (H-VFPAHSLVPFLAPSQ-OH), the Kd in assay [1] (setting [3]) was determined as 2600 nM.

VFPWHSLAPFLAPSQ [L-CICp with V41 mutated to alanine] displayed an equilibrium dissociation constant (Kd) in assay [2] of 70 nM.

In turn, AFPWHSLVPFLAPSQ [L-CICp with V34 mutated to alanine] returned a dissociation constant (Kd) in assay [2] of 20 nM.

Regarding VFPWHALVPFLAPSQ [L-CICp with S39 mutated to alanine], the Kd in assay [2] stood at 10 nM.

Molecule VFPWHSLVAFLAPSQ [L-CICp with P42 mutated to alanine] gave a Kd in assay [2] of 40 nM.

In assay [2], VFPWHSLVPFAAPSQ [L-CICp with L44 mutated to alanine] registered an equilibrium dissociation constant (Kd) of 50 nM.

Molecule VFAWHSLVPFLAPSQ [L-CICp with P36 mutated to alanine] gave a Kd in assay [2] of 40 nM.

Turning to VAPWHSLVPFLAPSQ [L-CICp with F35 mutated to alanine], in assay [2], the dissociation constant Kd amounted to 30 nM.

The molecule VFPWHSLVPALAPSQ [L-CICp with F43 mutated to alanine] yielded a dissociation constant Kd in assay [2] of 60 nM.
